Measurements reported in ChEMBL document CHEMBL4418489, “FTO inhibitors” (2018).

Columns and labels:
[1] = target: Alpha-ketoglutarate-dependent dioxygenase FTO (Homo sapiens, UniProt Q9C0B1); assay: Inhibition of FTO (unknown origin) assessed as reduction in demethylation by measuring N6-mA and A level incubated for 2 hrs by HPLC-MS/MS analysis
[2] = species: Homo sapiens; assay: Selectivity index, ratio of IC50 for COMT (unknown origin) (test compound)/IC50 for FTO (unknown origin) (test compound) to IC50 for COMT (entacapone)/IC50 for FTO (entacapone)

Sequence of Alpha-ketoglutarate-dependent dioxygenase FTO (Q9C0B1 whole entry): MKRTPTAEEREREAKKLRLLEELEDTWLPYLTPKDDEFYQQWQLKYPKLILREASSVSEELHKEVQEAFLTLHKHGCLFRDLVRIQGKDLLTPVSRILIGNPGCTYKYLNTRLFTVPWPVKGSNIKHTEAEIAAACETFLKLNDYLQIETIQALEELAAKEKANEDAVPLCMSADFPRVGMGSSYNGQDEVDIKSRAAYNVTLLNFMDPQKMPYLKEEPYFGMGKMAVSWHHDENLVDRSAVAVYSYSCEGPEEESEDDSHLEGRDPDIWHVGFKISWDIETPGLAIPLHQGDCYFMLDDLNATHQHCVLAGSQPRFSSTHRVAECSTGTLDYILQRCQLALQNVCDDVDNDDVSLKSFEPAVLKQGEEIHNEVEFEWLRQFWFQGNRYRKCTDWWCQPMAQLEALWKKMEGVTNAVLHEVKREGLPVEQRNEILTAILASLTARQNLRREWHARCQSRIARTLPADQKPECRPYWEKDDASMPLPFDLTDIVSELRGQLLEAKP

Row | IC50 [1] | Ratio IC50 [2] | Structure (SMILES)
1 | 3 µM | – | CCN(CC)C(=O)/C(C#N)=C/c1cc(O)c(O)c([N+](=O)[O-])c1 [ENTACAPONE]
2 | – | 1.65 | N#C/C(=C\c1cc(O)c(O)c([N+](=O)[O-])c1)C(=O)N1CCC1
